Reference: patent publication US20060229348A1, “Oxindole oxazolidinone as antibacterial agent” (priority 2005, published 2006)
Converted amounts (≈) assume the structure as drawn.

Legend:
[1] = tested on: S. aureus UC-76 SA-1; assay: in vitro antibacterial activity, S. aureus UC-76 SA-1; type: cell-based; settings: Staphylococcus aureus, UC76; strain UC-76 SA-1
Excerpt: (§1) The in vitro antibacterial activity of the compound of the present invention may be assessed by following procedures recommended in (1) National Committee for Clinical Laboratory Standards (January 2003), Methods for dilution antimicrobial tests for bacteria that grow aerobically, Approved Standard (6th ed), M7-A6, NCCLS, Wayne, Pa.; (2) National Committee for Clinical Laboratory Standards (March 2001), Methods for antimicrobial susceptibility testing of anaerobic bacteria, Approved Standard (5th ed), M11-A4, NCCLS, Wayne, Pa.; (3) National Committee for Clinical Laboratory Standards (Jan. 2003), MIC testing supplemental tables, M100-S13 (for use with M7-A6), NCCLS, Wayne, Pa.; and (4) Murray P R, Baron E J, Jorgensen J H, et al. Manual of Clinical Microbiology (8th ed) Washington, D.C.: American Society for Microbiology Press, 2003. The antibacterial activity can be presented in the form of MIC value. The MIC value is the lowest concentration of drug, which prevented macroscopically visible growth under the conditions of the test.

[2] = tested on: S. pneumoniae SV1 SP-3; assay: in vitro antibacterial activity, S. pneumoniae SV1 SP-3; type: cell-based; settings: Streptococcus pneumoniae, SV1SP3; strain SV1 SP-3
Excerpt: as §1

[3] = tested on: E. faecalis MGH-2 EF 1-1; assay: in vitro antibacterial activity, E. faecalis MGH-2 EF 1-1; type: cell-based; settings: Enterococcus faecalis, MGH2EF11; strain MGH-2 EF 1-1
Excerpt: as §1

[4] = tested on: S. aureus (LORSA); assay: in vitro antibacterial activity (MIC), S. aureus (LORSA); type: cell-based; settings: Staphylococcus aureus
Excerpt: as §1

[5] = tested on: S. pneumoniae (LRSA); assay: in vitro antibacterial activity (MIC), S. pneumoniae (LRSA); type: cell-based; settings: Streptococcus pneumoniae
Excerpt: as §1

[6] = tested on: E. faecalis (VREF); assay: in vitro antibacterial activity (MIC), E. faecalis (VREF); type: cell-based; settings: Enterococcus faecalis
Excerpt: as §1

[7] = tested on: E. faecium (VREF); assay: in vitro antibacterial activity (MIC), E. faecium (VREF); type: cell-based; settings: Enterococcus faecium
Excerpt: as §1

[8] = biological target: T1, MAO-A (Homo sapiens, UniProt P21397); assay: monoamine oxidase inhibition, MAO-A; type: biochemical; settings: substrate at Km 64 μM; MAO-A 0.01 mg/mL
T1 sequence (P21397 1-527): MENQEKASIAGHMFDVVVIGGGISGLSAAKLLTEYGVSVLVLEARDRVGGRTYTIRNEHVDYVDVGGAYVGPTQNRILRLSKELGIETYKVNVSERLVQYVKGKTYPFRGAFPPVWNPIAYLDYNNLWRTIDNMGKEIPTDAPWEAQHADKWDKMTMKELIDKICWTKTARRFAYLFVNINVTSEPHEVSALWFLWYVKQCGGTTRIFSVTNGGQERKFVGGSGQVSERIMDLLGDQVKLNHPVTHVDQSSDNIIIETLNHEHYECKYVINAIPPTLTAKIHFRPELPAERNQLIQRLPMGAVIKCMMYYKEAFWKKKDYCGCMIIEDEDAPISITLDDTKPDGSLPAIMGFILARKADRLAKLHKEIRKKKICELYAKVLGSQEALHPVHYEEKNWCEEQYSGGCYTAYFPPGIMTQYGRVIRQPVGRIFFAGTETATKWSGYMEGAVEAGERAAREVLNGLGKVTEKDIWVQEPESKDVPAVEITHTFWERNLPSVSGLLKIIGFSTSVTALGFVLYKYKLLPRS
Protocol: (§2) MAO-A and B inhibition were analyzed by measuring the inhibition of conversion of an MAO substrate, 1-methyl-4-(1-methyl-2-pyrryl)-1,2,3,6-tetrahydropyridine, to its dihydropyridinium metabolite (λ=421 nm). The substrate concentration was equal to the Km (64 μM for MAO-A and 43 μM for MAO-B). The MAO-A concentration was 0.01 mg/mL, and the MAO-B concentration was 0.008 mg/mL. Each inhibitor was tested at seven concentrations. Percent inhibition at each concentration was established relative to the uninhibited control rate, and the IC50 and Ki values were calculated.

[9] = biological target: T2, MAO-B (Homo sapiens, UniProt P27338); assay: monoamine oxidase inhibition, MAO-B; type: biochemical; settings: substrate at Km 43 μM; MAO-B 0.008 mg/mL
T2 sequence (P27338 1-520): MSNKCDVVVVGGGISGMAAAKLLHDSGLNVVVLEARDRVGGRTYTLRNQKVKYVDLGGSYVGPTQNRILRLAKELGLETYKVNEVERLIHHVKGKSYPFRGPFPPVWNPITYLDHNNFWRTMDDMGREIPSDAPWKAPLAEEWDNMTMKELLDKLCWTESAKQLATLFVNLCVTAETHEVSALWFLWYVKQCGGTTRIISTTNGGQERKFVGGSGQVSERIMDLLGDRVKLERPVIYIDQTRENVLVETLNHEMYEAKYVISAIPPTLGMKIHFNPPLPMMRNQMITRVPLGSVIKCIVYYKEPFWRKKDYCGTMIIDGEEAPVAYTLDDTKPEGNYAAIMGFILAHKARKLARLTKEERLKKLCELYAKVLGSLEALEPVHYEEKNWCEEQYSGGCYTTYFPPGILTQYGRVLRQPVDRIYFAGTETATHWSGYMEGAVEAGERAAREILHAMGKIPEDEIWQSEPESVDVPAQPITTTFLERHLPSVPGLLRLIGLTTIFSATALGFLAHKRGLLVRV
Protocol: as §2

## COC(=O)NC[C@H]1CN(c2ccc3c(c2)CC(=O)N3C(C)CF)C(=O)O1 (stereo partly drawn) [Example 8, (S)-{3-[1-(2-fluoro-1-methyl-ethyl)-2-oxo-2,3-dihydro-1H-indol-5-yl]-2-oxo-oxazolidin-5-ylmethyl}-carbamic acid methyl ester]
[1]
  MIC90: 4 µg/mL (≈ 10.9 µM)
[2]
  MIC90: 4 µg/mL (≈ 10.9 µM)
[3]
  MIC90: 4 µg/mL (≈ 10.9 µM)

## COC(=O)NC[C@H]1CN(c2ccc3c(c2)CC(=O)N3CC2CC2)C(=O)O1 [Example 7, (S)-[3-(1-cyclopropylmethyl-2-oxo-2,3-dihydro-1H-indol-5-yl)-2-oxo-oxazolidin-5-ylmethyl]-carbamic acid methyl ester]
[1]
  MIC90: 8 µg/mL (≈ 22.3 µM)
[2]
  MIC90: 4 µg/mL (≈ 11.1 µM)
[3]
  MIC90: 8 µg/mL (≈ 22.3 µM)

## CCN1C(=O)Cc2cc(N3C[C@H](CNC(=O)OC)OC3=O)ccc21 [Compound No. 1, (5S)-[3-(1-ethyl-2-oxo-2,3-dihydro-1H-indol-5-yl)-2-oxo-oxazolidin-5-ylmethyl]-carbamic acid methyl ester]
[4]
  MIC90: 4 µg/mL (≈ 12 µM)
[5]
  MIC90: 2 µg/mL (≈ 6 µM)
[6]
  MIC90: 4 µg/mL (≈ 12 µM)
[7]
  MIC90: 4 µg/mL (≈ 12 µM)
[8]
  Ki: 880 µM
[9]
  Ki: 57.4 µM

## COC(=O)NC[C@H]1CN(c2ccc3c(c2)CC(=O)N3CCF)C(=O)O1 [Example 3, (S)-{3-[1-(2-fluoro-ethyl)-2-oxo-2,3-dihydro-1H-indol-5-yl]-2-oxo-oxazolidin-5-ylmethyl}-carbamic acid methyl ester]
[1]
  MIC90: 4 µg/mL (≈ 11.4 µM)
[2]
  MIC90: 2 µg/mL (≈ 5.69 µM)
[3]
  MIC90: 2 µg/mL (≈ 5.69 µM)

## COC(=O)NC[C@H]1CN(c2ccc3c(c2)CC(=O)N3C2CC2)C(=O)O1 [Example 6, (S)-[3-(1-cyclopropyl-2-oxo-2,3-dihydro-1H-indol-5-yl)-2-oxo-oxazolidin-5-ylmethyl]-carbamic acid methyl ester]
[1]
  MIC90: 4 µg/mL (≈ 11.6 µM)
[2]
  MIC90: 4 µg/mL (≈ 11.6 µM)
[3]
  MIC90: 4 µg/mL (≈ 11.6 µM)

## COC(=O)NC[C@H]1CN(c2ccc3c(c2)CC(=O)N3C(C)C)C(=O)O1 [Example 4, (S)-[3-(1-isopropyl-2-oxo-2,3-dihydro-1H-indol-5-yl)-2-oxo-oxazolidin-5-ylmethyl]-carbamic acid methyl ester]
[1]
  MIC90: 8 µg/mL (≈ 23 µM)
[2]
  MIC90: 4 µg/mL (≈ 11.5 µM)
[3]
  MIC90: 8 µg/mL (≈ 23 µM)

## CCCN1C(=O)Cc2cc(N3C[C@H](CNC(=O)OC)OC3=O)ccc21 [Example 5, (S)-[2-oxo-3-(2-oxo-1-propyl-2,3-dihydro-1H-indol-5-yl)-oxazolidin-5-ylmethyl]-carbamic acid methyl ester]
[1]
  MIC90: 8 µg/mL (≈ 23 µM)
[2]
  MIC90: 4 µg/mL (≈ 11.5 µM)
[3]
  MIC90: 4 µg/mL (≈ 11.5 µM)

## COC(=O)NC[C@H]1CN(c2ccc3c(c2)CC(=O)N3C)C(=O)O1 [Example 2, (S)-[3-(1-methyl-2-oxo-2,3-dihydro-1H-indol-5-yl)-2-oxo-oxazolidin-5-ylmethyl]-carbamic acid methyl ester]
[1]
  MIC90: 4 µg/mL (≈ 12.5 µM)
[2]
  MIC90: 1 µg/mL (≈ 3.13 µM)
[3]
  MIC90: 2 µg/mL (≈ 6.26 µM)
